Results reported in US12351580B2, “NLRP3 modulators” (Innate Tumor Immunity, Inc., priority 2017, dated 2025).

Experiments:
[1] = molecular target: T1, TLR8 (Homo sapiens, UniProt Q9NR97); assay: In vitro human TLR8 binding reporter assay (HEK-Blue, NF-kB/AP1-inducible SEAP); assay type: cell-based
T1 construct: host or cells: HEK-Blue cells (human HEK) co-expressing TLR8 and an NF-kB/AP1-inducible SEAP reporter
T1 sequence (Q9NR97 27-1041): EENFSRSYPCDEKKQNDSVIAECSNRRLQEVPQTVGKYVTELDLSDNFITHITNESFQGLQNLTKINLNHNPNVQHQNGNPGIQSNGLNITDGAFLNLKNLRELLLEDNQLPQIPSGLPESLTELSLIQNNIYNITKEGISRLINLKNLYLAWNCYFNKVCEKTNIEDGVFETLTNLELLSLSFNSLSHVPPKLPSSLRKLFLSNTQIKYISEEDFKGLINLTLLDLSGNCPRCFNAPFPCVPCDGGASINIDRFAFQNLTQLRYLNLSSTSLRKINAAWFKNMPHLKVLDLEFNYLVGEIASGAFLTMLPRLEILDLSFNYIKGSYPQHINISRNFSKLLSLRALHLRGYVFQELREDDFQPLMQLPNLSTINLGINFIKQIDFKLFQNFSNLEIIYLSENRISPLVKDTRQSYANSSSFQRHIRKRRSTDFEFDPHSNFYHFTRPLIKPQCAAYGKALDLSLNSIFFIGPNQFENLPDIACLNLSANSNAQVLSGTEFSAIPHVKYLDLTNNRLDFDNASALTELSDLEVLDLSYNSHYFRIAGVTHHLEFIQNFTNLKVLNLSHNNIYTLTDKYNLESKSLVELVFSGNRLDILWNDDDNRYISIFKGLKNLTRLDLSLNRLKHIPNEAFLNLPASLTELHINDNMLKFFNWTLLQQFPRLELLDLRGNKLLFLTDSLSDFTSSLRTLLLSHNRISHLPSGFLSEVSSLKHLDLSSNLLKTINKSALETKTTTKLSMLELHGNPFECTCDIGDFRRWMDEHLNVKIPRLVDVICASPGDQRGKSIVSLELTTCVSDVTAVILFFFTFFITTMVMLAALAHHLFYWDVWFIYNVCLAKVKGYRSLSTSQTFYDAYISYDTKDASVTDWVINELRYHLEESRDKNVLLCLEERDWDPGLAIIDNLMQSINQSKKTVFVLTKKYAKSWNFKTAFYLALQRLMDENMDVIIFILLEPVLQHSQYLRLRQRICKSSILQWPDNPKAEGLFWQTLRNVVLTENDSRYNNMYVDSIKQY
Summary of the method: (§1)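 Reporter cells are plated at 15,000 per well and rested 24 h. Next day, test compounds or DMSO are dispensed, followed by 18 h incubation at 37 °C, 5% CO2.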

[2] = molecular target: T2, TLR7 (Homo sapiens, UniProt Q9NYK1); assay: In vitro human TLR7 binding reporter assay (HEK-Blue, NF-kB/AP1-inducible SEAP); assay type: cell-based; conditions: activity range symbols
T2 construct: host or cells: HEK-Blue cells (human HEK) co-expressing TLR7 and an NF-kB/AP1-inducible SEAP reporter
T2 sequence (Q9NYK1 27-1049): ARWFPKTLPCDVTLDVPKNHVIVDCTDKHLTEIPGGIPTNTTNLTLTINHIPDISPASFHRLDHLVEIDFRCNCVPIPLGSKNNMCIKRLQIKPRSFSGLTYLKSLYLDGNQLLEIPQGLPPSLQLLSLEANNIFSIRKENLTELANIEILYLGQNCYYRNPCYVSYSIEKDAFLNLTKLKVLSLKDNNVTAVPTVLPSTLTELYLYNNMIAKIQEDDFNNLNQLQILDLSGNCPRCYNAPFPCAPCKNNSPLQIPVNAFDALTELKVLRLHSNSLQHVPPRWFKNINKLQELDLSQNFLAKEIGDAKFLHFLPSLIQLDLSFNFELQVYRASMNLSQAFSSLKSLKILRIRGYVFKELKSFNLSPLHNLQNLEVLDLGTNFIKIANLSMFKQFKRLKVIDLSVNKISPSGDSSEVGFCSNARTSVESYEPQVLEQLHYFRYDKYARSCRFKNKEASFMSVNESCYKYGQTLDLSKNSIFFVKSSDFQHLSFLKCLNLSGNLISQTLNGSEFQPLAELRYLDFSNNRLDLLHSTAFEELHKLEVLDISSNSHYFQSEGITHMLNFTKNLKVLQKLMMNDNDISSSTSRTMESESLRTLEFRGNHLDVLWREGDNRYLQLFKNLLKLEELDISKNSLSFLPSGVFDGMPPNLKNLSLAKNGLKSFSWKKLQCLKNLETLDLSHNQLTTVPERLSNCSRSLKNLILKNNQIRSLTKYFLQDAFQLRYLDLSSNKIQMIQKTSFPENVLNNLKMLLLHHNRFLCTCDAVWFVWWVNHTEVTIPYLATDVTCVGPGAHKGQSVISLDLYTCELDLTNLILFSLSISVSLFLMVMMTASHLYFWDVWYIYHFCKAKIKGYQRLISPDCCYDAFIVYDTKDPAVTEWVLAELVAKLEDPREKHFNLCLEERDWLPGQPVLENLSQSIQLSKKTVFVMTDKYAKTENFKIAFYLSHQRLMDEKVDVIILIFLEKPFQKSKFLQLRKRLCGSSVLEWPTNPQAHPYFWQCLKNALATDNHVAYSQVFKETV
Summary of the method: as §1

Row | Compound | EC50 ([1]; activity range symbols) [µM] | EC50 [2] [µM] | EC50 ([1]; numeric bounds) [µM]
1 | Nc1nc2cc(Cl)ccc2c2[nH]c(CN3CCCC3=O)nc12 [Compound 143] | > 100 | 20 to 100 | –
2 | Nc1nc2cc(-c3ccc(Cl)nc3)ccc2c2[nH]c(CN3CCCC3=O)nc12 [Compound 153] | > 100 | 20 to 100 | –
3 | CCNCc1nc2c(N)nc3cc(OC)ccc3c2[nH]1 [Compound 154] | 20 to 100 | > 100 | –
4 | CCN(Cc1nc2c(N)nc3cc(-c4ncc[nH]4)ccc3c2[nH]1)C(=O)OC(C)(C)C [Compound 155] | > 100 | > 100 | –
5 | Nc1nc2cc(-n3ncc4ccccc43)ccc2c2[nH]c(CN3CCCC3=O)nc12 [Compound 157] | 20 to 100 | 20 to 100 | –
6 | CCN(Cc1nc2c(N)nc3cc(OC)ccc3c2[nH]1)C(C)=O [Compound 158, N-((4-Amino-7-methoxy-1H-imidazo[4,5-c]quinolin-2-yl)methyl)-N-ethylacetamide] | > 100 | > 100 | –
7 | CCN(Cc1nc2c(N)nc3cc(Cl)c(Cl)cc3c2[nH]1)C(C)=O [Compound 159] | > 100 | > 100 | –
8 | CCNCc1nc2c(N)nc3cc(-c4ncc[nH]4)ccc3c2[nH]1 [Compound 162] | > 100 | > 100 | –
9 | CCN(Cc1nc2c(N)nc3cc(-c4cc[nH]n4)ccc3c2[nH]1)CC(C)C [Compound 453, 2-{[ethyl(2-methylpropyl)amino]methyl}-7-(1H-pyrazol-3-yl)-1H-imidazo[4,5-c]quinolin-4-amine] | > 100 | > 100 | –
10 | CCN(CC)C(=O)N(CC)Cc1nc2c(N)nc3cc(-c4cc[nH]n4)ccc3c2[nH]1 [Compound 454, 1-{[4-amino-7-(1H-pyrazol-3-yl)-1H-imidazo[4,5-c]quinolin-2-yl]methyl}-1,3,3-triethylurea] | > 100 | > 100 | –
11 | CCN(Cc1nc2c(N)nc3cc(-c4cc[nH]n4)ccc3c2[nH]1)C(=O)N1CCOCC1 [Compound 455, N-{[4-amino-7-(1H-pyrazol-3-yl)-1H-imidazo[4,5-c]quinolin-2-yl]methyl}-N-ethylmorpholine-4-carboxamide] | > 100 | > 100 | –
12 | CCN(Cc1nc2c(N)nc3cc(-c4cc[nH]n4)ccc3c2[nH]1)C(=O)NC(C)(C)C [Compound 456, 1-{[4-amino-7-(1H-pyrazol-3-yl)-1H-imidazo[4,5-c]quinolin-2-yl]methyl}-3-tert-butyl-1-ethylurea] | > 100 | > 100 | –
13 | CCNC(=O)N(CC)Cc1nc2c(N)nc3cc(-c4cc[nH]n4)ccc3c2[nH]1 [Compound 457, 1-{[4-amino-7-(1H-pyrazol-3-yl)-1H-imidazo[4,5-c]quinolin-2-yl]methyl}-1,3-diethylurea] | > 100 | > 100 | –
14 | CCN(Cc1nc2c(N)nc3cc(-c4cc[nH]n4)ccc3c2[nH]1)S(=O)(=O)N(C)C [Compound 458, 2-{[(dimethylsulfamoyl)(ethyl)amino]methyl}-7-(1H-pyrazol-3-yl)-1H-imidazo[4,5-c]quinolin-4-amine] | > 100 | > 100 | –
15 | CCN(Cc1nc2c(N)nc3cc(-c4cc[nH]n4)ccc3c2[nH]1)S(=O)(=O)C(C)C [Compound 459, N-{[4-amino-7-(1H-pyrazol-3-yl)-1H-imidazo[4,5-c]quinolin-2-yl]methyl}-N-ethylpropane-2-sulfonamide] | > 100 | > 100 | –
16 | CCCS(=O)(=O)N(CC)Cc1nc2c(N)nc3cc(-c4cc[nH]n4)ccc3c2[nH]1 [Compound 460, N-{[4-amino-7-(1H-pyrazol-3-yl)-1H-imidazo[4,5-c]quinolin-2-yl]methyl}-N-ethylpropane-1-sulfonamide] | – | > 100 | > 62
17 | CCNCc1nc2c(N)nc3cc(-c4ccn[nH]4)ccc3c2n1CCO [Compound 462, 2-[4-Amino-2-[(ethylamino)methyl]-7-(1H-pyrazol-5-yl)-1H-imidazo[4,5-c]quinolin-1-yl]ethan-1-ol] | > 100 | > 100 | –
